Test results taken from patent US9375004B2 (Bayer Intellectual Property GmbH, priority 2010, dated 2016).

Columns and labels:
[1] = test system: Fusarium nivale (var. majus); assay: Fusarium nivale (var. majus)-test (wheat)/preventive; conditions: for Efficacy: preventive, evaluated 5 days after inoculation; for protection: dose of 250 ppm and 500 ppm of active ingredient
Protocol: Fusarium Nivale (Var. Majus)-Test (Wheat)/Preventive
Solvent: 49 parts by weight of N,N-dimethylacetamide
(§1) Emulsifier: 1 part by weight of alkylaryl polyglycol ether
After the spray coating has been dried, the plants are slightly injured by using a sandblast and afterwards they are sprayed with a conidia suspension of Fusarium nivale (var. majus).
The plants are placed in the greenhouse under a translucent incubation cabinet at a temperature of approximately 10° C. and a relative atmospheric humidity of approximately 100%.
The test is evaluated 5 days after the inoculation.

[2] = test system: Sphaerotheca fuliginea; assay: Sphaerotheca test (cucumber)/preventive; format: in vivo; conditions: 500 ppm, preventive, evaluated 7 days after inoculation
[3] = logP by HPLC on reversed-phase column (EEC Directive 79/831 Annex V.A8); conditions: EEC Directive 79/831 Annex V.A8
[4] = test system: Alternaria solani; assay: Alternaria test (tomato)/preventive; format: in vivo; conditions: 500 ppm, preventive, evaluated 7 days after inoculation
[5] = test system: Puccinia triticina; assay: Puccinia triticina-test (wheat)/preventive; format: in vivo; conditions: 500 ppm, preventive, evaluated 8 days after inoculation
[6] = test system: Pyrenophora teres; assay: Pyrenophora teres-test (barley)/preventive; format: in vivo; conditions: 500 ppm, preventive, evaluated 8 days after inoculation
[7] = test system: Venturia inaequalis; assay: Venturia test (apples)/preventive; conditions: 100 ppm, preventive, evaluated 10 days after inoculation
Protocol: Venturia Test (Apples)/Preventive
Solvent: 24.5 parts by weight of acetone • 24.5 parts by weight of N,N-dimethylformamide
as §1
After the spray coating has dried on, the plants are inoculated with an aqueous conidia suspension of the causal agent of apple scab (Venturia inaequalis) and then remain for 1 day in an incubation cabinet at approximately 20° C. and a relative atmospheric humidity of 100%.
The plants are then placed in a greenhouse at approximately 21° C. and a relative atmospheric humidity of approximately 90%.
The test is evaluated 10 days after the inoculation.

[8] = test system: Uromyces appendiculatus; conditions: 100 ppm, beans, preventive, evaluated 10 days after inoculation
[9] = HPLC on reversed-phase column (C 18)
[10] = HPLC on a reversed-phase column (C 18)

Structure (SMILES) | Efficacy ([1]; 500 ppm) | logP [3, 9] | Efficacy [4] | Efficacy [5] | other results
Cn1cc(C(=O)Nc2ccccc2C2CC2C2CC2)c(C(F)F)n1 (centres unmarked) [2.34 from WO-2003/074491, N-{2-[1,1′-bi(cyclopropyl)-2-yl]phenyl}-3-(difluoromethyl)-1-methyl-1H-pyrazole-4-carboxamide, reference compound] | 57% |  |  |  | Efficacy ([1]; 500 ppm, listed as 2.34): less than 60%
CC(C)C1C2CCC1c1c(NC(=O)c3cn(C)nc3C(F)F)cccc12 (stereo not drawn) [15.202 (syn/anti 3/7) from WO-2004/035589] [3-(difluoromethyl)-N-(9-isopropyl-1,2,3,4-tetrahydro-1,4-methanonaphthalen-5-yl)-1-methyl-1H-pyrazole-4-carboxamide, reference compound] | 83% |  |  |  | Efficacy ([1]; 250 ppm): 50%
CC(C)C1C2CCC1c1c(NC(=O)c3cn(C)nc3C(F)F)cccc12 (stereo not drawn) [15.202 (syn/anti 9/1) from WO-2004/035589] [3-(difluoromethyl)-N-(9-isopropyl-1,2,3,4-tetrahydro-1,4-methanonaphthalen-5-yl)-1-methyl-1H-pyrazole-4-carboxamide, reference compound] | 50% |  |  |  | Efficacy ([1]; 250 ppm): 50%
Cn1cc(C(=O)Nc2cccc3c2C2CCC3C2=C(Cl)Cl)c(C(F)F)n1 (centres unmarked) [A1.1 from WO-2008/131901, N-[9-(dichloromethylene)-1,2,3,4-tetrahydro-1,4-methanonaphthalen-5-yl]-3-(difluoromethyl)-1-methyl-1H-pyrazole-4-carboxamide, reference compound] | 88% |  |  |  | Efficacy ([1]; 250 ppm): 75%; protection [1]: at least 70%
Cn1nc(C(F)F)c(C(=O)Nc2ccccc2C(C)(C)C)c1F [Example 3] |  | 2.98 | 94% |  | Efficacy [2]: 98%
CC(C)C1C2CCC1c1c(NC(=O)c3cn(C)nc3C(F)F)cccc12 (centres unmarked) [Example 15.202, 3-(difluoromethyl)-N-(9-isopropyl-1,2,3,4-tetrahydro-1,4-methanonaphthalen-5-yl)-1-methyl-1H-pyrazole-4-carboxamide, reference compound] |  |  |  |  | protection [1]: average (less than 50%) protection to good (at least 70%) protection
COC(C)(C)C#Cc1ccccc1NC(=O)c1c(C(F)F)nn(C)c1F [Example 19] |  | 3.34 | 80% |  | 
CCC(CC(C)C)c1ccccc1NC(=O)c1c(C(F)F)nn(C)c1F (centres unmarked) [Example 20] |  | 4.28 | 90% |  | 
Cn1nc(C(F)F)c(C(=S)Nc2ccccc2CC[Si](C)(C)C)c1Cl [Example 25] | 88% | 4.56 |  | 100% | 
Cn1nc(C(F)F)c(C(=O)Nc2ccccc2OC(F)(F)C(F)C(F)(F)F)c1F (centres unmarked) [Example 32] |  | 3.48 | 95% |  | 
Cn1nc(C(F)F)c(C(=O)Nc2cccc3c2CCC3)c1F [Example 54] |  | 2.94 | 70% |  | 
Cn1nc(C(F)F)c(C(=O)Nc2cccc3c2CCC3)c1Cl [Example 55] | 83% | 3.19 |  | 100% | Efficacy [6]: 71%
CC1CC(C)(C)c2cccc(NC(=O)c3c(C(F)F)nn(C)c3Cl)c21 (centres unmarked) [Example 65] | 86% | 4.04 | 80% | 100% | Efficacy [7]: 98%; Efficacy [8]: 100%; Efficacy [6]: 100%
Cn1nc(C(F)F)c(C(=O)Nc2ccccc2-c2ccccc2)c1F [Example 73] |  | 3.25 | 90% |  | Efficacy [2]: 75%
Cn1nc(C(F)F)c(C(=O)Nc2ccccc2-c2ccccc2)c1Cl [Example 74] |  | 3.59 | 78% |  | 
Cc1ccccc1-c1ccccc1NC(=O)c1c(C(F)F)nn(C)c1F [Example 75] |  | 3.74 | 94% | 70% | Efficacy [6]: 100%
Cn1nc(C(F)F)c(C(=O)Nc2ccc(F)cc2-c2ccc(F)cc2)c1F [Example 77] |  | 3.16 | 95% |  | Efficacy [2]: 95%
Cn1nc(C(F)F)c(C(=O)Nc2ccccc2-c2ccc(F)cc2)c1Cl [Example 78] |  | 3.40 | 90% |  | Efficacy [2]: 75%

Structure (SMILES) | Efficacy ([1]; 500 ppm) | logP [3, 9] | Efficacy [4] | Efficacy [5] | other results
Cn1nc(C(F)F)c(C(=O)Nc2ccc(F)cc2-c2ccc(F)cc2)c1Cl [Example 79] |  | 3.41 | 90% |  | Efficacy [2]: 95%
CC(C)Oc1cccc(NC(=O)c2c(C(F)F)nn(C)c2Cl)c1 [Example 169] | 71% | 2.98 |  | 100% | Efficacy [7]: 96%; Efficacy [8]: 100%; Efficacy [6]: 100%
CC(C)Oc1cccc(NC(=O)c2c(C(F)F)nn(C)c2F)c1 [Example 170] | 86% | 2.88 |  | 100% | 
CCCOc1cccc(NC(=O)c2c(C(F)F)nn(C)c2Cl)c1 [Example 174] |  | 3.25 | 70% |  | 
C=C(C)COc1cccc(NC(=O)c2c(C(F)F)nn(C)c2F)c1 [Example 176] | 100% | 3.15 |  | 100% | Efficacy [6]: 100%
Cn1nc(C(F)F)c(C(=O)Nc2cccc(OC(F)(F)F)c2)c1Cl [Example 181] |  | 3.25 |  |  | Efficacy [8]: 100%
Cn1nc(C(F)F)c(C(=O)Nc2cccc(OC(F)(F)C(F)F)c2)c1Cl [Example 188] |  | 3.09 |  | 100% | Efficacy [8]: 100%; Efficacy [6]: 92%
Cn1nc(C(F)F)c(C(=O)Nc2ccc3c(c2)CCC3)c1Cl [Example 193] | 75% | 3.17 |  | 100% | 
Cc1cc(C)c(-c2cccc(NC(=O)c3c(C(F)F)nn(C)c3Cl)c2)c(C)c1 [Example 212] | 75% | 4.56 |  | 86% | 
Cc1cc(Cl)ccc1Oc1cccc(NC(=O)c2c(C(F)F)nn(C)c2F)c1 [Example 254] |  |  | 70% |  | logP [3, 10]: 4.19
Cn1nc(C(F)F)c(C(=O)Nc2cccc(Oc3cccc(C(F)(F)F)c3)c2)c1Cl [Example 255] | 100% |  |  | 94% | logP [3, 10]: 3.89; Efficacy [8]: 73%
Cc1nn(C)c(F)c1C(=O)Nc1ccccc1C(C)CC(C)C (centres unmarked) [I-21 from WO-2003/010149, 5-fluoro-1,3-dimethyl-N-[2-(4-methylpentan-2-yl)phenyl]-1H-pyrazole-4-carboxamide, reference compound] | 40% |  |  |  | Efficacy ([1]; 250 ppm): 20%; protection [1]: less than 40%
Cn1nc(C(F)F)c(C(=O)Nc2ccc(C3CCCCC3)cc2)c1Cl [compound 263] |  |  |  |  | logP [3, 10]: 4.44
Cn1nc(C(F)F)c(C(=O)Nc2ccc(-c3ccccc3)cc2)c1F [compound 264] |  |  |  |  | logP [3, 10]: 3.33
Cn1nc(C(F)F)c(C(=O)Nc2ccc(-c3ccccc3)cc2)c1Cl [compound 265] |  |  |  |  | logP [3, 10]: 3.50
Cn1nc(C(F)F)c(C(=O)Nc2ccc(-c3cc(Cl)cc(Cl)c3)cc2)c1F [compound 266] |  |  |  |  | logP [3, 10]: 4.51
Cn1nc(C(F)F)c(C(=O)Nc2ccc(-c3cc(Cl)cc(Cl)c3)cc2)c1Cl [compound 267] |  |  |  |  | logP [3, 10]: 4.72
Cn1nc(C(F)F)c(C(=O)Nc2ccc(Oc3ccccc3)cc2)c1F [compound 268] |  |  |  |  | logP [3, 10]: 3.29
